Assay results from patent publication US20220409727A1, “Metal Complexes Bearing Bisstyryl-Bipyridine Ligand and Their Use as Photosensitizer Agent in One and Two-Photon Photodynamic Therapy” (Paris Sciences et Lettres, priority 2019, published 2022).
Like-named read-outs stand apart in the source and are kept apart here.

Tests used:
[1] = reference for the measurement; cited from earlier work
[2] = test system: human cervical carcinoma (HeLa) cells; test: (Photo-)cytotoxicity on 2D cell monolayers, resazurin assay, HeLa; type: cell-based
Excerpt: Before an experiment, the cells were passaged three times.

[3] = test system: mouse colon carcinoma (CT-26) cells; test: (Photo-)cytotoxicity on 2D cell monolayers, resazurin assay, CT-26; conditions: for IC50: compounds 1-3 as chloride salts
HeLa MCTS [4] = test: 3D multicellular tumor spheroids (MCTS) growth inhibition assay; type: cell-based, human
Method: (§1) autoclave. The hot emulsion was transferred into wells (50 μL per well) of a 96 cell culture well plate. The plates were exposed for 3 h to UV irradiation to ensure the sterility and allow the agarose solution to cool down. After this time, the agarose was overlayed with a HeLa cell suspension at a density of 3000 cells per well in 150 μL of media. The MCTS were cultivated and maintained at 37° C. in a cell culture incubator at 37° C. with 5% CO2 atmosphere. The culture media was replaced every two days. Within two-three days MCTs were formed from the cell suspension. The formation as well as integrity, diameter and volume of the MCTs was monitored by an Axio Observer Z1 (Carl Zeiss) phase contrast microscope. The volume was calculated using the following formula: V=4/3πr^3. The luminescence images along the z-axis were captured by a one-(λex=458 nm, λem=600-750 nm) or two-photon (λex=800 nm, λem=600-750 nm) excitation in the z-stack mode with a an LSM 880 (Carl Zeiss) laser scanning confocal microscope equipped with Argon and a Coherent Chameleon 2-Photon laser and a GaAsP detector.
MCTS were treated with the corresponding compounds (20 μM 1-7, 20 μM tetraphenylporphyrin H2TPP, 10 μM cisplatin, 30 μM cisplatin, 2% DMSO, v %) by replacing 50% of the media with drug supplemented media in the dark for three days. After this time, the MCTS were exposed to a two-photon irradiation (800 nm, 10 J/cm^2) with a section interval of 5 μm using a LSM 880 (Carl Zeiss) laser scanning confocal microscope equipped with a Coherent Chameleon 2-Photon laser. The cell culture media was replaced every two days. The integrity and diameter of the MCTs was monitored with an Axio Observer Z1 (Carl Zeiss) phase contrast microscope every 24 h.

[5] = test system: human glioblastoma astrocytoma (U373) cells; test: (Photo-)cytotoxicity on 2D cell monolayers, resazurin assay, U373; conditions: for IC50: compounds 1-3 as chloride salts
Method: (§3) The human glioblastoma astrocytoma (U373) cell line was cultured in MEM medium supplemented with 10% FBS, 1% NEAA (non-essential amino-acids) and 1% penicillin/streptomycin. […] The human retinal epithelial cells (RPE-1, non-cancerous cells immortalized with hTERT) were cultured in DMEM-F12 medium supplemented with 10% FBS and 1% penicillin/streptomycin. All cell lines were obtained from the American Type Culture Collection (ATCC) and cultured at 37° C. and 5% CO2. Before an experiment, the cells were passaged three times.
(§4) The cytotoxicity of the compounds was assessed by measuring cell viability using a fluorometric resazurin assay. The cultivated cells were seeded in triplicates in 96 well plates with a density of 4000 cells per well in 100 μL of media. After 24 h, the medium was removed and the cells were treated with increasing concentrations of the compound diluted in cell media achieving a total volume of 200 μL. The cells were incubated with the compound for 4 h. After this time, the media was removed and replaced with 200 μL of fresh medium. For the phototoxicity studies, the cells were exposed to light with an Atlas Photonics LUMOS BIO irradiator. Each well was constantly illuminated with either a 480 nm or 540 nm irradiation. During this time, the temperature was maintained constantly at 37° C. The cells were grown in the incubator for additional 44 h. For the determination of the dark cytotoxicity, the cells were not irradiated and after the medium exchange directly incubated for 44 h. After this time, the medium was replaced with fresh medium containing resazurin with a final concentration of 0.2 mg/mL. After 4 h incubation, the amount of the fluorescent product resorufin was determined upon excitation at 540 nm and measurement its emission at 590 nm using a SpectraMax M2 Microplate Reader (Molecular Devices).
(§5) The obtained data was analyzed with the GraphPad Prism software.

HeLa MCTS [6] = test: (Photo-)cytotoxicity on 3D multicellular tumor spheroids (ATP, CellTiter-Glo 3D); type: cell-based, human; conditions: dark, 12 h incubation, read-out: IC50 dark
Method: as §1
The cytotoxicity of the compounds in 3D multicellular tumor spheroids (MCTS) was assessed by measurement of the ATP concentration. MCTS were treated with increasing concentrations of the compound (2% DMSO, v %) by replacing 50% of the media with drug supplemented media and incubation for 12 h. After this time, the MCTS were divided in three identical groups. The first group was strictly kept in the dark. The second group was exposed to a one-photon irradiation (500 nm, 10 J/cm^2) using a LED and the third group was exposed to a two-photon irradiation (800 nm, 10 J/cm^2) with a section interval of 5 μm using a LSM 880 (Carl Zeiss, Germany) laser scanning confocal microscope equipped with a Coherent Chameleon 2-Photon laser. After the irradiation, all groups were incubated additional 48 h. The ATP concertation was measured using a CellTiter-Glo 3D Cell Viability kit (Promega) by measuring the generated chemiluminescence with an infinite M200 PRO (Tecan) plate reader.

[7] = CH3CN; cited from earlier work
[8] = Luminescence lifetime measurements; type: physicochemical; conditions: excitation at 355 nm
Method: (§2) For the determination of the lifetimes, the samples were prepared in an air saturated and in a degassed CH3CN solution with an absorbance of 0.2 at 355 nm. This solution was irradiated in fluorescence quartz cuvettes (width 1 cm) using a NT342B Nd-YAG pumped optical parametric oscillator (Ekspla) at 355 nm. The emission signal was focused and collected at right angle to the excitation pathway and directed to a Princeton Instruments Acton SP-2300i monochromator. As a detector a R928 photomultiplier tube (Hamamatsu) has been used.

[9] = test system: human glioblastoma astrocytoma (U373) cells
Method: as §3, §4, §5

[10] = Emission measurement in CH3CN; type: physicochemical; conditions: room temperature, excitation at 355 nm
Method: The absorption of the samples was measured with a SpectraMax M2 Spectrometer (Molecular Devices). The emission was measured by irradiation of the sample in fluorescence quartz cuvettes (width 1 cm) using a NT342B Nd-YAG pumped optical parametric oscillator (Ekspla) at 355 nm. Luminescence was focused and collected at right angle to the excitation pathway and directed to a Princeton Instruments Acton SP-2300i monochromator. As a detector, a XPI-Max 4 CCD camera (Princeton Instruments) has been used.

[11] = test system: non-cancerous retinal pigment epithelium (RPE-1) cells; test: (Photo-)cytotoxicity on 2D cell monolayers, resazurin assay, RPE-1;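 note: cells exposed to compound 4 h, medium exchanged, then irradiated or kept dark, 44 h further growth, viability by resorufin fluorescence (ex 540 nm, em 590 nm)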
Method: as §3, §4, §5

[12] = test system: mouse colon carcinoma (CT-26) cells
[13] = Singlet oxygen measurement, indirect evaluation (RNO absorbance); type: physicochemical; conditions: indirect
Method: For the measurement in CH3CN: The samples were prepared in an air-saturated CH3CN solution containing the complex with an absorbance of 0.2 at the irradiation wavelength, N,N-dimethyl-4-nitrosoaniline aniline (RNO, 24 μM) and imidazole (12 mM). For the measurement in PBS buffer: The samples were prepared in an air-saturated PBS solution containing the complex with an absorbance of 0.1 at the irradiation wavelength, N,N-dimethyl-4-nitrosoaniline aniline (RNO, 20 μM) and histidine (10 mM). The samples were irradiated on 96 well plates with an Atlas Photonics LUMOS BIO irradiator for different times. The absorbance of the samples was measured during these time intervals with a SpectraMax M2 Microplate Reader (Molecular Devices). The difference in absorbance (A0−A) at 420 nm for the CH3CN solution or at 440 nm a PBS buffer solution was calculated and plotted against the irradiation times. From the plot the slope of the linear regression was calculated as well as the absorbance correction factor determined. The singlet oxygen quantum yields were calculated using the same formulas as used for the direct evaluation.

[14] = Singlet oxygen measurement, direct evaluation (1O2 luminescence at 1270 nm); type: physicochemical
Method: The samples were prepared in an air saturated CH3CN or D2O solution with an absorbance of 0.2 at 450 nm. This solution was irradiated in fluorescence quartz cuvettes (width 1 cm) using a mounted M450LP1 LED (Thorlabs) whose irradiation, centered at 450 nm, has been focused with aspheric condenser lenses. The intensity of the irradiation has been varied using a T-Cube LED Driver (Thorlabs) and measured with an optical power and energy meter. The emission signal was focused and collected at right angle to the excitation pathway and directed to a Princeton Instruments Acton SP-2300i monochromator. A longpass glass filter was placed in front of the monochromator entrance slit to cut off light at wavelengths shorter than 850 nm. As a detector an EO-817L IR-sensitive liquid nitrogen cooled germanium diode detector (North Coast Scientific Corp.) has been used. The singlet oxygen luminesce at 1270 nm was measured by recording spectra from 1100 to 1400 nm. For the data analysis, the singlet oxygen luminescence peaks at different irradiation intensities were integrated. The resulting areas were plotted against the percentage of the irradiation intensity and the slope of the linear regression calculated. The absorbance of the sample was corrected with an absorbance correction factor. As reference for the measurement Rose Bengal (Φ=76%) (Kochevar, I. E. and Redmond, R. W., 2000) was used and the singlet oxygen quantum yields were calculated using the following formula:
Φsample=Φreference*(Ssample/Sreference)*(Ireference/Isample)
Φ=singlet oxygen quantum yield, S=slope of the linear regression of the plot of the areas of the singlet oxygen luminescence peaks against the irradiation intensity, I=absorbance correction factor, […] of the irradiation source, A=absorbance of the sample at irradiation wavelength.

[15] = Luminescence quantum yield measurements; type: physicochemical; set-up: key: fraction, relative to [Ru(bipy)3]Cl2 reference in CH3CN (Φem=5.9%); conditions: CH3CN, room temperature, excitation at 355 nm
Method: as §2, with “luminescence quantum yield,” for “lifetimes,”, “an” for “an air saturated and in a degassed”, “0.1” for “0.2”, “XPI-Max 4 CCD camera (Princeton Instruments)” for “R928 photomultiplier tube (Hamamatsu)”, “used. The luminescence quantum yields were determined by comparison with the reference [Ru(bipy)3]Cl2 in CH3CN (Φem=5.9%) (Nakamaru, K., 1982) applying the following formula:” for “used.”
Φem, sample=Φem, reference*(Freference/Fsample)*(Isample/Ireference)*(nsample/nreference)^2
Φem=luminescence quantum yield, F=fraction of light absorbed, I=integrated emission intensities, n=refractive index, A=absorbance of the sample at irradiation wavelength.

[16] = dark, 4 h incubation, compounds 1-3 as chloride salts, read-out: IC50 dark
[17] = read-out: IC50 dark, CT-26, dark, 4 h incubation
[18] = read-out: IC50 dark, U373, dark, 4 h incubation

Structure (SMILES): O=C([O-])c1c(Cl)c(Cl)c(Cl)c(Cl)c1-c1c2cc(I)c(=O)c(I)c-2oc2c(I)c([O-])c(I)cc12.[Na+].[Na+] [Rose Bengal]
- Φ (singlet oxygen quantum yield of the reference) [1]: 76%

Structure (SMILES): N.N.[Cl][Pt][Cl] [cisplatin, reference compound]
- IC50 [2, 16]: 10.5 ± 0.8 µM
- IC50 [3, 17]: 6.5 ± 1.1 µM
- effect on the tumours growth (MCTS volume) at 10 μM (HeLa MCTS [4]; 10 μM): weak effect
- effect on the tumours growth (MCTS volume) at 30 μM (HeLa MCTS [4]; 30 μM): significantly decreasing the volume
- IC50 [5, 18]: 17.6 ± 1.7 µM
- IC50 (HeLa MCTS [6]): 18.6 ± 1.3 µM

Structure (SMILES): [Cl-].[Cl-].[Ru+2].c1ccc(-c2ccccn2)nc1.c1ccc(-c2ccccn2)nc1.c1ccc(-c2ccccn2)nc1 [[Ru(bipy)3]Cl2]
- Φem (luminescence quantum yield of the reference) [7]: 5.9%

Structure (SMILES): CN(C)c1ccc(/C=C/c2ccnc(-c3cc(/C=C/c4ccc(N(C)C)cc4)ccn3)c2)cc1.CN(C)c1ccc(/C=C/c2ccnc(-c3cc(/C=C/c4ccc(N(C)C)cc4)ccn3)c2)cc1.CN(C)c1ccc(/C=C/c2ccnc(-c3cc(/C=C/c4ccc(N(C)C)cc4)ccn3)c2)cc1.F[P-](F)(F)(F)(F)F.F[P-](F)(F)(F)(F)F.[Ru+2] [Compound 2, [Ru((E,E′)-4,4′-Bis[p-(N,N-dimethylamino)styryl]-2,2′-bipyridine)3][PF6]2]
- τ/ns air (Lifetime) ([8]; air saturated CH3CN): 48 ns
- τ/ns degassed (Lifetime) ([8]; degassed CH3CN): 222 ns
- IC50 [9]: 61.4 ± 5.6 µM
- PI (480 nm) ([2]; dark vs 480 nm (10 min, 3.1 J/cm^2)): >3.4
- PI (540 nm) ([2]; dark vs 540 nm (40 min, 9.5 J/cm^2)): >1.9
- IC50 [2, 16]: > 100 µM
- IC50 ([2]; read-out: IC50 480 nm (10 min, 3.1 J/cm^2), irradiation 480 nm (10 min, 3.1 J/cm^2), compounds 1-3 as chloride salts): 29.4 ± 8.3 µM
- IC50 ([2]; read-out: IC50 540 nm (40 min, 9.5 J/cm^2), irradiation 540 nm (40 min, 9.5 J/cm^2), compounds 1-3 as chloride salts): 52.3 ± 6.1 µM
- PI (480 nm) ([3]; CT-26, dark vs 480 nm (10 min, 3.1 J/cm^2)): >2.3
- PI (540 nm) ([3]; CT-26, dark vs 540 nm (40 min, 9.5 J/cm^2)): >1.6
- IC50 ([3]; read-out: IC50 540 nm (40 min, 9.5 J/cm^2), CT-26, irradiation 540 nm (40 min, 9.5 J/cm^2)): 62.5 ± 8.2 µM
- IC50 [3, 17]: > 100 µM
- λem/nm (Emission maximum) [10]: 709 nm
- PI (480 nm) ([5]; U373, dark vs 480 nm (10 min, 3.1 J/cm^2)): >2.0
- PI (540 nm) ([5]; U373, dark vs 540 nm (40 min, 9.5 J/cm^2)): >1.6
- IC50 ([5]; read-out: IC50 480 nm (10 min, 3.1 J/cm^2), U373, irradiation 480 nm (10 min, 3.1 J/cm^2)): 49.1 ± 6 µM
- IC50 [5, 18]: > 100 µM
- PI (480 nm) ([11]; RPE-1, dark vs 480 nm (10 min, 3.1 J/cm^2)): >2.6
- PI (540 nm) ([11]; RPE-1, dark vs 540 nm (40 min, 9.5 J/cm^2)): >2.0
- IC50 [12]: 42.6 ± 3.8 µM
- Singlet oxygen quantum yield, indirect 450 nm CH3CN ([13]; 450 nm, CH3CN): 25%
- Singlet oxygen quantum yield, indirect 450 nm PBS ([13]; 450 nm, PBS): 3%
- Singlet oxygen quantum yield, indirect 540 nm CH3CN ([13]; 540 nm, CH3CN): 16%
- Singlet oxygen quantum yield, indirect 540 nm PBS ([13]; 540 nm, PBS): 1%
- Singlet oxygen quantum yield, direct 450 nm CH3CN [14]: 18%
- ϕem (Luminescence Quantum Yield) [15]: <0.001
